Earlier results as cited in article PMC4263154 (Journal of Clinical Pharmacology, 2013).
“Also recorded” adds a separate entry of the source. Where two headings read alike, the source gives them in different places.

How the values were obtained:
[1] = not given; remark: listed apart in the source
[2] = system: MC4R

Row | Compound | effect on body weight and energy intake (Phase 1 and 2 clinical trials) | erectogenic effect (clinical trial) | sexual arousal ([1]; females with sexual behavior disorders) | erectogenic activity ([1]; males with erectile dysfunction) | effect on food intake or energy expenditure ([2]; MC4R knock-out mice) | effect on food intake or energy expenditure ([2]; wild-type mice)
1 | CC(=O)N[C@@H](C)c1cc(Cl)ccc1C1CCN(C(=O)[C@@H]2CN(C(C)(C)C)C[C@H]2c2ccc(F)cc2F)CC1 [MK-0493] | failed to demonstrate effect; also recorded: lack of efficacy | failed to demonstrate the same effect |  |  |  | 
2 | melanotan-II |  |  | arousal | erectogenic activity | no effect | did exert these effects
